Values after ≈ are worked out from the molar mass of the structure shown.
Experiments:
[1] = Inhibition of beta-1,3-glucan synthase in Candida albicans MY1055 microsomal membrane using UDP-[3H]-glucose as substrate incubated for 2 hrs in presence of UTP by radioactivity-based assay; assay type: cell membranes
[2] = system: Candida albicans; assay: Antifungal activity against Candida albicans MY1055 assessed as fungal growth inhibition measured after 24 hrs by liquid microdilution method; assay type: functional
[3] = system: Candida albicans; assay: Antifungal activity against Candida albicans MY1055 assessed as fungal growth inhibition measured after 24 hrs in presence of mouse serum by liquid microdilution method; assay type: functional
[4] = system: Aspergillus fumigatus; assay: Antifungal activity against Aspergillus fumigatus MF5668 assessed as fungal growth inhibition measured after 24 hrs by liquid microdilution method; assay type: functional; details: read-out: MEC
[5] = system: Candida albicans; assay: Antifungal activity against Candida albicans MY1055 infected in DBA mouse model assessed as log change in colony forming units in kidney at 12.5 mg/kg, po bid for 2 days and measured after 4 days by TOKA; assay type: functional; details: time 2 day
[6] = system: Candida albicans; assay: Antifungal activity against Candida albicans MY1055 infected in DBA/2 mouse model assessed as log change in colony forming units in kidney at 25 mg/kg, po bid for 2 days and measured after 4 days by TOKA; assay type: functional; details: time 2 day
[7] = system: Candida albicans; assay: Antifungal activity against Candida albicans MY1055 infected in DBA/2 mouse model assessed as log change in colony forming units in kidney at 6.5 mg/kg, po bid for 2 days and measured after 4 days by TOKA; assay type: functional; details: time 2 day
[8] = Oral bioavailability in mouse; assay type: ADME, organism-based; details: in vivo

| Compound | IC50 [1] [µg/mL] | MIC [2] [µg/mL] | MIC [3] [µg/mL] | minimal effective concentration [4] [µg/mL] | Activity [5] [log CFU] | Activity [6] [log CFU] | Activity [7] [log CFU] | bioavailability [8] [%] |
| --- | --- | --- | --- | --- | --- | --- | --- | --- |
| CC(C)[C@@H](C)[C@@]1(C)CC[C@]2(C)[C@H]3CC[C@@H]4[C@@]5(COC[C@]4(C)[C@@H](OC[C@](C)(N)C(C)C)[C@H](n4cnc(C#N)n4)C5)C3=CC[C@@]2(C)[C@@H]1C(=O)O | 0.334 | 8 (≈ 12 µM) | > 32 | 4 | – | – | – | – |
| CC(C)[C@@H](C)[C@@]1(C)CC[C@]2(C)[C@H]3CC[C@@H]4[C@@]5(COC[C@]4(C)[C@@H](OC[C@](C)(N)C(C)C)[C@H](n4ncnc4S(N)(=O)=O)C5)C3=CC[C@@]2(C)[C@@H]1C(=O)O | 0.006 | 0.25 (≈ 0.348 µM) | 8 | < 0.03 | -0.8 | -0.7 | -0.8 | – |
| CC(C)[C@@H](C)[C@@]1(C)CC[C@]2(C)[C@H]3CC[C@@H]4[C@@]5(COC[C@]4(C)[C@@H](OCC4(N)CCOCC4)[C@H](n4ncnc4C(N)=O)C5)C3=CC[C@@]2(C)[C@@H]1C(=O)O | 0.008 | 0.125 (≈ 0.18 µM) | 2 | < 0.03 | – | – | – | – |
| CC(C)[C@@H](C)[C@@]1(C)CC[C@]2(C)[C@H]3CC[C@@H]4[C@@]5(COC[C@]4(C)[C@@H](OC[C@](C)(N)C(C)C)[C@H](n4ncnc4I)C5)C3=CC[C@@]2(C)[C@@H]1C(=O)O | 0.005 | 0.5 (≈ 0.654 µM) | 16 | < 0.03 | – | – | – | – |
| COC(=O)c1ncnn1[C@@H]1C[C@@]23COC[C@@](C)([C@@H]2CC[C@H]2C3=CC[C@@]3(C)[C@H](C(=O)O)[C@@](C)([C@H](C)C(C)C)CC[C@]23C)[C@H]1OC[C@](C)(N)C(C)C | 0.004 | 1 (≈ 1.43 µM) | 32 | 0.125 | – | – | – | – |
| CCNC(=O)c1ncnn1[C@@H]1C[C@@]23COC[C@@](C)([C@@H]2CC[C@H]2C3=CC[C@@]3(C)[C@H](C(=O)O)[C@@](C)([C@H](C)C(C)C)CC[C@]23C)[C@H]1OC[C@](C)(N)C(C)C | 0.008 | 0.25 (≈ 0.352 µM) | 16 | < 0.03 | -1.4 | -2.8 | -0.8 | 13 |
| CC(C)[C@@H](C)[C@@]1(C)CC[C@]2(C)[C@H]3CC[C@@H]4[C@@]5(COC[C@]4(C)[C@@H](OC[C@](C)(N)C(C)C)[C@H](n4cnnc4C#N)C5)C3=CC[C@@]2(C)[C@@H]1C(=O)O | > 1 | 16 (≈ 24.1 µM) | > 32 | 8 | – | – | – | – |
| CC(C)[C@@H](C)[C@@]1(C)CC[C@]2(C)[C@H]3CC[C@@H]4[C@@]5(COC[C@]4(C)[C@@H](OC[C@](C)(N)C(C)C)[C@H](n4ncnc4C(=O)N(C)C)C5)C3=CC[C@@]2(C)[C@@H]1C(=O)O | 0.009 | 0.25 (≈ 0.352 µM) | 8 | < 0.03 | -1.3 | -2.4 | -1 | 16 |
| CC(C)NC(=O)c1ncnn1[C@@H]1C[C@@]23COC[C@@](C)([C@@H]2CC[C@H]2C3=CC[C@@]3(C)[C@H](C(=O)O)[C@@](C)([C@H](C)C(C)C)CC[C@]23C)[C@H]1OC[C@](C)(N)C(C)C | 0.01 | 0.25 (≈ 0.345 µM) | 16 | < 0.03 | -1.8 | -2.3 | -0.4 | 10 |
| CC(C)[C@@H](C)[C@@]1(C)CC[C@]2(C)[C@H]3CC[C@@H]4[C@@]5(COC[C@]4(C)[C@@H](OC[C@](C)(N)C(C)C)[C@H](n4cncn4)C5)C3=CC[C@@]2(C)[C@@H]1C(=O)O | 0.007 | 0.25 (≈ 0.391 µM) | 4 | < 0.03 | – | – | – | – |
| CC(C)[C@@H](C)[C@@]1(C)CC[C@]2(C)[C@H]3CC[C@@H]4[C@@]5(COC[C@]4(C)[C@@H](OC[C@](C)(N)C(C)C)[C@H](n4cnc(Cl)n4)C5)C3=CC[C@@]2(C)[C@@H]1C(=O)O | 0.019 | 8 (≈ 11.9 µM) | > 32 | 0.25 | – | – | – | – |
| CC(C)[C@@H](C)[C@@]1(C)CC[C@]2(C)[C@H]3CC[C@@H]4[C@@]5(COC[C@]4(C)[C@@H](OC[C@](C)(N)C(C)C)[C@H](n4ncnc4C#N)C5)C3=CC[C@@]2(C)[C@@H]1C(=O)O | 0.006 | 0.125 (≈ 0.188 µM) | 8 | < 0.03 | 0 | -1.1 | -0.9 | – |
| CC(C)[C@@H](C)[C@@]1(C)CC[C@]2(C)[C@H]3CC[C@@H]4[C@@]5(COC[C@]4(C)[C@@H](OC[C@](C)(N)C(C)C)[C@H](n4ncnc4Br)C5)C3=CC[C@@]2(C)[C@@H]1C(=O)O | 0.002 | 0.5 (≈ 0.697 µM) | 8 | < 0.03 | -1.7 | -2.3 | -0.2 | 33 |
| CCCNC(=O)c1ncnn1[C@@H]1C[C@@]23COC[C@@](C)([C@@H]2CC[C@H]2C3=CC[C@@]3(C)[C@H](C(=O)O)[C@@](C)([C@H](C)C(C)C)CC[C@]23C)[C@H]1OC[C@](C)(N)C(C)C | 0.007 | 0.5 (≈ 0.691 µM) | 16 | < 0.03 | -1.6 | -2.2 | -1.1 | 33 |
| CC(C)[C@@H](C)[C@@]1(C)CC[C@]2(C)[C@H]3CC[C@@H]4[C@@]5(COC[C@]4(C)[C@@H](OC[C@](C)(N)C(C)C)[C@H](n4ncnc4C(N)=O)C5)C3=CC[C@@]2(C)[C@@H]1C(=O)O | 0.005 | < 0.03 | 2 | < 0.03 | -0.2 | -2.5 | -0.9 | 7 |
| CC(C)[C@@H](C)[C@@]1(C)CC[C@]2(C)[C@H]3CC[C@@H]4[C@@]5(COC[C@]4(C)[C@@H](OC[C@](C)(N)C(C)C)[C@H](n4ncnc4N)C5)C3=CC[C@@]2(C)[C@@H]1C(=O)O | 0.01 | 0.25 (≈ 0.382 µM) | 16 | 0.125 | – | – | – | – |
| CC(C)[C@@H](C)[C@@]1(C)CC[C@]2(C)[C@H]3CC[C@@H]4[C@@]5(COC[C@]4(C)[C@@H](OC[C@](C)(N)C(C)C)[C@H](n4ncnc4C(=O)NC4CC4)C5)C3=CC[C@@]2(C)[C@@H]1C(=O)O | 0.005 | 0.25 (≈ 0.346 µM) | 16 | < 0.03 | -0.9 | -2.1 | -0.8 | 30 |
| CC(C)[C@@H](C)[C@@]1(C)CC[C@]2(C)[C@H]3CC[C@@H]4[C@@]5(COC[C@]4(C)[C@@H](OC[C@](C)(N)C(C)C)[C@H](n4ncnc4Cl)C5)C3=CC[C@@]2(C)[C@@H]1C(=O)O | 0.003 | 0.06 (≈ 0.0891 µM) | 8 | < 0.03 | -2.2 | -1.9 | -1.2 | 9 |
| CNC(=O)c1ncnn1[C@@H]1C[C@@]23COC[C@@](C)([C@@H]2CC[C@H]2C3=CC[C@@]3(C)[C@H](C(=O)O)[C@@](C)([C@H](C)C(C)C)CC[C@]23C)[C@H]1OC[C@](C)(N)C(C)C | 0.004 | 0.125 (≈ 0.18 µM) | 8 | < 0.03 | -1.6 | -2.6 | -0.6 | 5 |
| CCSc1ncnn1[C@@H]1C[C@@]23COC[C@@](C)([C@@H]2CC[C@H]2C3=CC[C@@]3(C)[C@H](C(=O)O)[C@@](C)([C@H](C)C(C)C)CC[C@]23C)[C@H]1OC[C@](C)(N)C(C)C | 0.009 | 0.5 (≈ 0.715 µM) | 32 | < 0.03 | – | – | – | – |
| CC(C)[C@@H](C)[C@@]1(C)CC[C@]2(C)[C@H]3CC[C@@H]4[C@@]5(COC[C@]4(C)[C@@H](OCC4(N)CCCCC4)[C@H](n4ncnc4C(N)=O)C5)C3=CC[C@@]2(C)[C@@H]1C(=O)O | 0.01 | 0.06 (≈ 0.0865 µM) | 16 | < 0.03 | -1.8 | -1.8 | -0.5 | – |
| CCS(=O)(=O)c1ncnn1[C@@H]1C[C@@]23COC[C@@](C)([C@@H]2CC[C@H]2C3=CC[C@@]3(C)[C@H](C(=O)O)[C@@](C)([C@H](C)C(C)C)CC[C@]23C)[C@H]1OC[C@](C)(N)C(C)C | 0.005 | 1 (≈ 1.37 µM) | 8 | < 0.03 | – | – | – | – |
| CC(C)[C@@H](C)[C@@]1(C)CC[C@]2(C)[C@H]3CC[C@@H]4[C@@]5(COC[C@]4(C)[C@@H](OC[C@](C)(N)C(C)C)[C@H](n4cnnc4Cl)C5)C3=CC[C@@]2(C)[C@@H]1C(=O)O | > 1 | 32 (≈ 47.5 µM) | > 32 | 16 | – | – | – | – |

Source: ChEMBL document CHEMBL4725308, “MK-5204: An orally active β-1,3-glucan synthesis inhibitor” (Bioorg Med Chem Lett, 2020)
